According to patent US20100041642A1, “UREA INHIBITORS OF MAP KINASES” (LOCUS PHARMACEUTICALS, INC., priority 2008, published 2010):

Biological target: p38 (Homo sapiens, UniProt Q16539)
Experiment: Protein Kinase Assay (33P incorporation from γ-[33P]ATP into GST-ATF-2)
Format: biochemical
Conditions: 2 nM p38, preincubated 20 min at 30° C.; 10 uM cold ATP, 2 uM GST-ATF2, 70 min; read-out: ACT. (Activity), IC50 category in Protein Kinase Assay
Description: Protein Kinase Assay. The protein kinase activity of p38 was determined by measuring the incorporation of ^33P from γ-[^33P]ATP into the GST-ATF-2 substrate, amino acids 19-96 (Upstate, N.Y. USA). The reactions were carried out in a final volume of 50 μL of 24 mM Tris-HCl buffer, pH 7.5, containing 13 mM MgCl2, 12% Glycerol, 2% DMSO, 2 mM DTT, […] of γ-[^33P]ATP (1000 Ci/mmol; 1 Ci=37 GBq) (GE Healthcare, Piscataway, N.J.), 10 uM cold ATP (GE Healthcare, Piscataway, N.J.), and 2 uM GST-ATF2. Compounds were preincubated with 2 nM p38 for 20 min at 30° C.; the reactions were initiated by the addition of GST-ATF2 and ATP and incubated for 70 min at 30° C. before being stopped by the addition of 10 μL of 600 mM phosphoric acid. The phosphorylated substrate was captured on phosphocellulose 96-well plate (Millipore MAPHNOB 10), washed with 100 mM phosphoric acid, and counted in a BeckmenCoulter LS6500 liquid scintillation counter. […] (Activity).

Chain of p38 (Q16539 whole entry): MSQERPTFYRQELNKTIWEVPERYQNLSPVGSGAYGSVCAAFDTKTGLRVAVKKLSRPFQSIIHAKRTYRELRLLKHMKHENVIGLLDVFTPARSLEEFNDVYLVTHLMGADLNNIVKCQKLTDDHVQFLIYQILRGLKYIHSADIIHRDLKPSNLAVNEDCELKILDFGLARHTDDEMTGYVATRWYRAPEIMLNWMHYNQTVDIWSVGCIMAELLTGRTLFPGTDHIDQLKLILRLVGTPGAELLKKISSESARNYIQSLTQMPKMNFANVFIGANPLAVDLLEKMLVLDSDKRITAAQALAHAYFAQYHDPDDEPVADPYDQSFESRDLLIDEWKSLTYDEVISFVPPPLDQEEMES

Row | SMILES | IC50
1 | Cc1ccc(NC(=O)Nc2sc(C(C)(C)C)cc2C(=O)N2CCN(C)C(=O)C2(C)C)cc1-c1ccc(N2CCN(C)CC2)nc1 [1-(5-tert-butyl-3-(2,2,4-trimethyl-3-oxopiperazine-1-carbonyl)thiophen-2-yl)-3-(4-methyl-3-(6-(4-methylpiperazin-1-yl)pyridin-3-yl)phenyl)urea] | < 100 nM
2 | Cc1nnc(-c2ccc(-c3cc(NC(=O)Nc4sc(C(C)(C)C)cc4C(=O)N4CCN(C)C(=O)C4(C)C)ccc3C)cn2)o1 [1-(5-tert-butyl-3-(2,2,4-trimethyl-3-oxopiperazine-1-carbonyl)thiophen-2-yl)-3-(4-methyl-3-(6-(5-methyl-1,3,4-oxadiazol-2-yl)pyridin-3-yl)phenyl)urea] | < 100 nM
3 | Cc1ccc(NC(=O)Nc2sc(C(C)(C)C)cc2C(=O)N2CCN(C)C(=O)C2(C)C)cc1-c1ccc(CN2CCN(C)CC2)nc1 [1-(5-tert-butyl-3-(2,2,4-trimethyl-3-oxopiperazine-1-carbonyl)thiophen-2-yl)-3-(4-methyl-3-(6-((4-methylpiperazin-1-yl)methyl)pyridin-3-yl)phenyl)urea] | < 100 nM
4 | Cc1ccc(NC(=O)Nc2sc(C(C)(C)C)cc2C(=O)N2CCN(C)C(=O)C2(C)C)cc1-c1ccc(C(=O)N2CCOCC2)nc1 [1-(5-tert-butyl-3-(2,2,4-trimethyl-3-oxopiperazine-1-carbonyl)thiophen-2-yl)-3-(4-methyl-3-(6-(morpholine-4-carbonyl)pyridin-3-yl)phenyl)urea] | < 100 nM
5 | Cc1ccc(NC(=O)Nc2sc(C(C)(C)C)cc2C(=O)N2CCN(C)C(=O)C2(C)C)cc1-c1ccc(CN2CCOCC2)nc1 [1-(5-tert-butyl-3-(2,2,4-trimethyl-3-oxopiperazine-1-carbonyl)thiophen-2-yl)-3-(4-methyl-3-(6-(morpholinomethyl)pyridin-3-yl)phenyl)urea] | < 100 nM
6 | Cc1ccc(NC(=O)Nc2sc(C(C)(C)C)cc2C(=O)N2CCN(C)C(=O)C2(C)C)cc1-c1ccc(CN2CCCC2)nc1 [1-(5-tert-butyl-3-(2,2,4-trimethyl-3-oxopiperazine-1-carbonyl)thiophen-2-yl)-3-(4-methyl-3-(6-(pyrrolidin-1-ylmethyl)pyridin-3-yl)phenyl)urea] | < 100 nM
7 | Cc1ccc(-c2cc(NC(=O)Nc3sc(C(C)(C)C)cc3C(=O)N3CCN(C)C(=O)C3(C)C)ccc2C)cn1 [1-(5-tert-butyl-3-(2,2,4-trimethyl-3-oxopiperazine-1-carbonyl)thiophen-2-yl)-3-(4-methyl-3-(6-methylpyridin-3-yl)phenyl)urea] | < 100 nM
8 | Cc1ccc(NC(=O)Nc2sc(C(C)(C)C)cc2C(=O)N2CCN(C)C(=O)C2(C)C)cc1-c1ccc(N2CCOCC2)nc1 [1-(5-tert-butyl-3-(2,2,4-trimethyl-3-oxopiperazine-1-carbonyl)thiophen-2-yl)-3-(4-methyl-3-(6-morpholinopyridin-3-yl)phenyl)urea] | < 100 nM
9 | Cc1ncc(NC(=O)Nc2sc(C(C)(C)C)cc2C(=O)N2CCN(C)C(=O)C2(C)C)cc1C#CC1CC1 [1-(5-tert-butyl-3-(2,2,4-trimethyl-3-oxopiperazine-1-carbonyl)thiophen-2-yl)-3-(5-(cyclopropylethynyl)-6-methylpyridin-3-yl)urea] | < 100 nM
10 | Cc1ccc(NC(=O)Nc2oc(C(C)(C)C)cc2C(=O)N2CCNC(=O)C2(C)C)cc1-c1ccncc1 [1-(5-tert-butyl-3-(2,2-dimethyl-3-oxopiperazine-1-carbonyl)furan-2-yl)-3-(4-methyl-3-(pyridin-4-yl)phenyl)urea] | < 100 nM
11 | COc1ccc(-c2cc(NC(=O)Nc3sc(C(C)(C)C)cc3C(=O)N3CCNC(=O)C3(C)C)c(F)cc2C)cn1 [1-(5-tert-butyl-3-(2,2-dimethyl-3-oxopiperazine-1-carbonyl)thiophen-2-yl)-3-(2-fluoro-5-(6-methoxypyridin-3-yl)-4-methylphenyl)urea] | < 100 nM

Next, values leading:

Row | IC50 | SMILES
12 | < 100 nM | CCN(CC)Cc1ccc(-c2cc(NC(=O)Nc3sc(C(C)(C)C)cc3C(=O)N3CCN(C)C(=O)C3(C)C)ccc2C)cn1 [1-(5-tert-butyl-3-(2,2,4-trimethyl-3-oxopiperazine-1-carbonyl)thiophen-2-yl)-3-(3-(6-((diethylamino)methyl)pyridin-3-yl)-4-methylphenyl)urea]
13 | < 100 nM | CCOc1ccc(-c2cc(NC(=O)Nc3sc(C(C)(C)C)cc3C(=O)N3CCN(C)C(=O)C3(C)C)ccc2C)cn1 [1-(5-tert-butyl-3-(2,2,4-trimethyl-3-oxopiperazine-1-carbonyl)thiophen-2-yl)-3-(3-(6-ethoxypyridin-3-yl)-4-methylphenyl)urea]
14 | < 100 nM | CCc1ccc(-c2cc(NC(=O)Nc3sc(C(C)(C)C)cc3C(=O)N3CCN(C)C(=O)C3(C)C)ccc2C)cn1 [1-(5-tert-butyl-3-(2,2,4-trimethyl-3-oxopiperazine-1-carbonyl)thiophen-2-yl)-3-(3-(6-ethylpyridin-3-yl)-4-methylphenyl)urea]
15 | < 100 nM | CCc1ccc(-c2cc(NC(=O)Nc3sc(C(C)(C)C)cc3C(=O)N3CCN(C)C(=O)C3(C)C)cc(F)c2C)cn1 [1-(5-tert-butyl-3-(2,2,4-trimethyl-3-oxopiperazine-1-carbonyl)thiophen-2-yl)-3-(3-(6-ethylpyridin-3-yl)-5-fluoro-4-methylphenyl)urea]
16 | < 100 nM | Cc1ccc(NC(=O)Nc2sc(C(C)(C)C)cc2C(=O)N2CCN(C)C(=O)C2(C)C)cc1-c1ccc(OC(C)C)nc1 [1-(5-tert-butyl-3-(2,2,4-trimethyl-3-oxopiperazine-1-carbonyl)thiophen-2-yl)-3-(3-(6-isopropoxypyridin-3-yl)-4-methylphenyl)urea]
17 | < 100 nM | COc1ccc(-c2cc(NC(=O)Nc3sc(C(C)(C)C)cc3C(=O)N3CCN(C)C(=O)C3(C)C)ccc2C)cn1 [1-(5-tert-butyl-3-(2,2,4-trimethyl-3-oxopiperazine-1-carbonyl)thiophen-2-yl)-3-(3-(6-methoxypyridin-3-yl)-4-methylphenyl)urea]
18 | < 100 nM | COc1ccc(-c2cc(NC(=O)Nc3sc(C(C)(C)C)cc3C(=O)N3CCN(C)C(=O)C3(C)C)cc(F)c2C)cn1 [1-(5-tert-butyl-3-(2,2,4-trimethyl-3-oxopiperazine-1-carbonyl)thiophen-2-yl)-3-(3-fluoro-5-(6-methoxypyridin-3-yl)-4-methylphenyl)urea]
19 | < 100 nM | Cc1ccc(NC(=O)Nc2sc(C(C)(C)C)cc2C(=O)N2CCN(C)C(=O)C2(C)C)cc1N1C(=O)CN(C)C1=O [1-(5-tert-butyl-3-(2,2,4-trimethyl-3-oxopiperazine-1-carbonyl)thiophen-2-yl)-3-(4-methyl-3-(3-methyl-2,5-dioxoimidazolidin-1-yl)phenyl)urea]
20 | < 100 nM | Cc1ccc(NC(=O)Nc2sc(C(C)(C)C)cc2C(=O)N2CCN(C)C(=O)C2(C)C)cc1-c1ccc(CN2CCOCC2)cn1 [1-(5-tert-butyl-3-(2,2,4-trimethyl-3-oxopiperazine-1-carbonyl)thiophen-2-yl)-3-(4-methyl-3-(5-(morpholinomethyl)pyridin-2-yl)phenyl)urea]
21 | < 100 nM | Cc1ccc(NC(=O)Nc2sc(C(C)(C)C)cc2C(=O)N2CCN(C)C(=O)C2(C)C)cc1-c1ccc(C(C)N2CCOCC2)nc1 (stereo not drawn) [1-(5-tert-butyl-3-(2,2,4-trimethyl-3-oxopiperazine-1-carbonyl)thiophen-2-yl)-3-(4-methyl-3-(6-(1-morpholinoethyl)pyridin-3-yl)phenyl)urea]
